Data: PubChem BioAssay (NCI)
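1) Cells in 96-well plates. 2) Compound, 48 h, 5 concentrations. 3) Linear interpolation between surrounding doses. 4) Unreached endpoint = highest concentration. Here, GI50 denotes the concentration required for 50% inhibition of growth. The concentration for full growth arrest is given as TGI.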

Tests used:
Test in all cases: DTP human tumour cell line panel, 48 h
A498 renal = system: A498 renal
ACHN renal = system: ACHN renal
HCC-2998 colon = system: HCC-2998 colon
HT29 colon = system: HT29 colon
KM12 colon = system: KM12 colon
MDA-N = system: MDA-N
MOLT-4 leukemia = system: MOLT-4 leukemia
SK-MEL-28 melanoma = system: SK-MEL-28 melanoma
T-47D breast = system: T-47D breast
U251 CNS = system: U251 CNS

| SMILES | TGI (A498 renal) | TGI (ACHN renal) | TGI (HCC-2998 colon) | TGI (HT29 colon) | TGI (KM12 colon) | TGI (MDA-N) | TGI (MOLT-4 leukemia) | TGI (SK-MEL-28 melanoma) | TGI (T-47D breast) | TGI (U251 CNS) | GI50 (MOLT-4 leukemia) | GI50 (ACHN renal) | GI50 (HCC-2998 colon) | GI50 (HT29 colon) | GI50 (KM12 colon) | GI50 (SK-MEL-28 melanoma) | GI50 (T-47D breast) | GI50 (U251 CNS) |
| --- | --- | --- | --- | --- | --- | --- | --- | --- | --- | --- | --- | --- | --- | --- | --- | --- | --- | --- |
| Cc1cc2c(C)cc(=O)[nH]c2cc1N | > 100 µM | > 100 µM | > 100 µM | > 100 µM | > 100 µM | > 100 µM | > 100 µM | > 100 µM | > 100 µM | > 100 µM | – | – | – | – | – | – | – | – |
| CSC1CC2C(CC1(C)O)C2(C)C (stereo unspecified) | > 100 µM | > 100 µM | > 100 µM | > 100 µM | > 100 µM | – | > 100 µM | > 100 µM | – | > 100 µM | > 100 µM | – | – | – | – | – | – | – |
| O=C(Nc1cccc2cnccc12)c1cc2c(cc1Cl)Sc1nccn1S2(=O)=O | – | 77.9 µM | 29.9 µM | 48.3 µM | 21.9 µM | 23.7 µM | 59.4 µM | 53.1 µM | 40.8 µM | 32.1 µM | – | – | – | – | – | – | – | – |
| COc1ccc(Nc2nc3ccc(C(F)(F)F)cc3nc2C(=O)O)cc1OC | 86.6 µM | > 100 µM | 43.7 µM | > 100 µM | 33.7 µM | > 100 µM | 43.5 µM | > 100 µM | – | > 100 µM | – | – | – | – | – | – | – | – |
| CCC12C[N+]3([O-])CCc4c([nH]c5ccccc45)C(C(=O)OC)(c4cc5c(cc4OC)N(C)C4C(O)(C(=O)OC)C(OC(C)=O)C6(CC)C=CCN7CCC54C76)CC(C3)C1O2 (stereo unspecified) | 18 µM | 31.9 µM | > 100 µM | 17.2 µM | 15.9 µM | – | 3.44 µM | 0.959 µM | – | 86.1 µM | – | – | – | – | – | – | – | – |
| CC(=O)OC[C@]1(C(=O)C(O)c2ccoc2)[C@H](C)CC[C@@]23COC(=O)C2=CCC[C@@H]31 (stereo partly specified) | > 10 µM | > 10 µM | > 10 µM | > 10 µM | > 10 µM | > 10 µM | > 10 µM | – | > 10 µM | > 10 µM | – | – | – | – | – | – | – | – |
| O=c1c2ncn(C3CC(O)C(CO)O3)c2nnn1Cc1ccccc1[N+](=O)[O-] (stereo unspecified) | > 100 µM | > 100 µM | > 100 µM | > 100 µM | > 100 µM | > 100 µM | > 100 µM | > 100 µM | > 100 µM | > 100 µM | – | – | – | – | – | – | – | – |
| CCOC1CC(=O)c2c(Br)sc(Br)c21 (stereo unspecified) | 83.3 µM | 36.7 µM | 36.9 µM | 44 µM | 37.2 µM | 49.6 µM | 35.1 µM | 39.5 µM | 44.1 µM | 33.1 µM | – | – | – | – | – | – | – | – |
| OC[C@@H](O)[C@H]1NC[C@@H](O)[C@H]1O | > 100 µM | > 100 µM | > 100 µM | > 100 µM | > 100 µM | > 100 µM | > 100 µM | > 100 µM | – | > 100 µM | – | – | – | – | – | – | – | – |
| CC1(C)C(c2ccccc2)=[N+]([O-])C(C)(C)N1O | > 10 µM | > 10 µM | > 10 µM | > 10 µM | > 10 µM | > 10 µM | > 10 µM | > 10 µM | > 10 µM | > 10 µM | – | – | – | – | – | – | – | – |
| COc1ccc(/C(=N/O)c2ccccc2-c2nc3ccccc3c(=O)n2-c2ccc(S(=O)(=O)Nc3ncccn3)cc2)cc1C | > 31.6 µM | 25.1 µM | 21.7 µM | – | > 31.6 µM | > 31.6 µM | 23.8 µM | 23 µM | 25.2 µM | 22.9 µM | – | – | – | – | – | – | – | – |
| CC(=O)OC(C)c1cc2c(s1)C(=O)c1sccc1C2=O (stereo unspecified) | 4.59 µM | – | 3.54 µM | 6.18 µM | 3.36 µM | 0.0338 µM | > 23.6 µM | 3.64 µM | 6.2 µM | 4.4 µM | – | – | – | – | – | – | – | – |
| CC(=O)NS(=O)(=O)c1ccc(NC(=O)c2c3ccccc3nc3ccccc23)cc1 | > 100 µM | > 100 µM | > 100 µM | > 100 µM | > 100 µM | > 100 µM | > 100 µM | > 100 µM | – | > 100 µM | – | – | – | – | – | – | – | – |
| CC(C)(C)C1=Cc2cc3cc(C(C)(C)C)[nH]c(=O)c3cc2S(=O)(=O)N1 | > 100 µM | 89.3 µM | – | 41.4 µM | 94.6 µM | – | 84.3 µM | > 100 µM | – | 34 µM | – | – | – | – | – | – | – | – |
| Nc1c2ccccc2nc2c1ccc1ncccc12 | – | 41 µM | 39.1 µM | > 100 µM | 52.6 µM | 74.7 µM | > 100 µM | > 100 µM | > 100 µM | > 100 µM | – | – | – | – | – | – | – | – |
| CCC1=CCC23C(=O)C=CC(=O)C2(C1)C(=O)c1cccc(OC)c1C3=O (stereo unspecified) | – | 27.4 µM | – | 55.8 µM | 43.6 µM | 35.7 µM | 17.4 µM | 33.3 µM | 22.6 µM | 61.8 µM | – | – | – | – | – | – | – | – |
| NC(CSCc1ccccc1)C(=O)O (stereo unspecified) | > 100 µM | > 100 µM | > 100 µM | > 100 µM | > 100 µM | > 100 µM | – | > 100 µM | > 100 µM | > 100 µM | – | – | – | – | – | – | – | – |
| C=C(Cl)/C(=C\Cl)CCC(Br)C(C)C (stereo unspecified) | > 100 µM | > 100 µM | > 100 µM | > 100 µM | > 100 µM | > 100 µM | > 100 µM | > 100 µM | – | > 100 µM | – | – | – | – | – | – | – | – |
| CCN(CC)CCNc1ccc2nnn3c4ccc(OC)cc4c(=O)c1c23 | 27 µM | 21.7 µM | – | 15.9 µM | 13.9 µM | – | 13.1 µM | 28.9 µM | – | 22.3 µM | – | – | – | – | – | – | – | – |
| CCC(C(=O)O)c1ccc(OCc2ccccc2)cc1 (stereo unspecified) | > 100 µM | > 100 µM | > 100 µM | > 100 µM | > 100 µM | – | > 100 µM | > 100 µM | – | > 100 µM | – | – | – | – | – | – | – | – |
| O=C1NCCCc2nonc21 | – | > 100 µM | > 100 µM | > 100 µM | > 100 µM | > 100 µM | > 100 µM | > 100 µM | > 100 µM | > 100 µM | – | – | – | – | – | – | – | – |
| COc1cc2c(cc1OCCCCOc1cc(-c3ccc(F)cc3)nc(C)n1)N=C[C@@H]1CCCN1C2=O | 4.6 µM | 0.823 µM | 0.689 µM | 3.92 µM | 3.67 µM | – | 0.279 µM | 2.81 µM | 1.14 µM | 2.55 µM | – | – | – | – | – | – | – | – |
| Oc1ccc(-c2nnc3sc(-c4ccc(F)cc4)nn23)cc1 | – | > 100 µM | > 100 µM | > 100 µM | > 100 µM | – | > 100 µM | > 100 µM | > 100 µM | 41.9 µM | 33.6 µM | 24.7 µM | > 100 µM | > 100 µM | > 100 µM | > 100 µM | 21 µM | 17.3 µM |
